In patent US11090305B2, “Methods and compositions to reduce oxidative stress” (University of Massachusetts, priority 2009, dated 2021):

Assays:
[1] = test system: Fyn; assay: Fyn expression in total thymocyte population; format: in vivo, mouse; settings: ApoE^−/− and HCD mice
Source text: Fyn, a member of the Src family of tyrosine kinases, is a critical participant in NKT cell development (33,34). […] FIGS. 55A-55C show Thymocyte Fyn expression is reduced in hypercholesterolemic mice. […] Representative western blots from 3 mice in each group, all run on the same gel, are shown. […] However, in DN3 and DN4 thymocytes, Fyn mRNA expression was less in ApoE^−/− than in WT mice. m±sd, *p<0.05 vs. WT; n=4 mice per group. (C) siRNA for Notch1 reduced mRNA expression of Fyn in WT thymocytes in vitro, with a threshold observed at 1.0 μg siRNA. m±sd, n=3 mice; *p<0.05 vs. random RNA. A representative western blot showing a single experiment run on the same gel is shown. […] These findings indicate that Notch1 and Fyn expression are linked, and that the reduced NKT expression in hypercholesterolemic mice is due, in part, to the Notch1 dependent reduction of Fyn expression in thymocytes. Finally, Fyn expression was determined in the total thymocyte population from WT recipient mice transplanted with ApoE^−/−- or WT-derived HSCs. Thymocyte Fyn expression in WT recipients transplanted with ApoE^−/−-derived HSCs was less than half that observed in WT recipients transplanted with WT-derived HSCs (FIG. 56). […] Fyn expression in thymocytes from the Apoe→WT group was less than in the WT→WT group. m±sd; n=4; *p<0.05 vs. WT→WT group. […]

[2] = test system: NKT and γδT cells; assay: NKT and γδT cell populations (flow cytometry, immunostaining); format: in vivo, mouse; settings: hypercholesterolemic mice, 4 weeks
Source text: All mice were purchased from Jackson Laboratories (Bar Harbor, Me.) and were maintained in the mouse barrier facility. Care of mice was in accordance with NIH guidelines and the Institutional Animal Care and Use Committee of the University of Massachusetts Medical School approved all protocols. Mice were kept on a 12 hr day/night schedule and were allowed free access to chow and water. ApoE^−/− and WT mice were fed standard mouse chow (5.4 g fat/100 g diet, 0% cholesterol). HCD mice were fed a diet with 10 g fat/100 g diet, […] (Research Diets, New Brunswick, N.J.). […] Azoxymethane (AOM) was given by intraperitoneal injection (10 mg/Kg weekly for 3 weeks); 1% dextran sodium sulfate was added to the drinking water for the Pt week after AOM treatment.
Cells were stained with monoclonal antibodies conjugated to various fluoroprobes. These antibodies included: Notch1, cKit (2B8), Sca-1 (E13-161.7), CD4 (L3T4), CD8 (53-6.72), CD90.1, CD25, CD44, TCRβ, NK1.1, γδTCR, CD45.1, CD45.2. The lineage cocktail consisted of CD4, CD8, B220 (RA3-6B2), TER-119, Mac-1 (MI/70), and Gr-1 (RB6-8C5). All antibodies were purchased from BD Bioscience (San Diego, Calif.). FACS analysis was carried out on a FACS Diva.
The colon and rectum was removed en bloc from each mouse and the number of polyps was identified using a dissecting microscope. Each polyp was frozen in OCT at −80° C. and cryosections (10 μM) cut. H&E staining was used to identify the histological grade of each polyp, assigned by a pathologist blinded to study condition. Standard immunostaining protocol was used to identify γδT cells (monoclonal antibody to γδTCR, DAPI counterstaining) and NKT cells (monoclonal antibodies to TCR and NK1.1, DAPI counterstaining). Sections were viewed with a Zeiss immunofluorescent microscope and Axiovert software.

[3] = test system: HSCs from hypercholesterolemic mice; assay: H2O2 in lysates from freshly harvested HSCs; set-up: species or system mouse; settings: ApoE and HCD mice, in vivo treatment
Procedure: HSCs were purified from bone marrow mononuclear cells by multi-parameter FACS sorting using the surface phenotype cKit^+Sca-1^+CD90.1^lowLin^−. A greater percentage of HSCs from ApoE^−/− and HCD mice stain with 2′,7′-dichlorofluorescein diacetate than WT KSL cells, indicating a higher oxidant level in cells from hypercholesterolemic mice. Two additional assays were carried out that confirmed this earlier finding: first, the level of H2O2 in HSC cell lysates, determined by spectrophotometry, was greater in ApoE^−/− and HCD mice than in WT mice (FIG. 42A).

[4] = test system: p19^Arf, p21^Waf1, and p27^Kip1; assay: RT-PCR expression of p19^Arf, p21^Waf1, p27^Kip1 in HSCs; format: in vivo, mouse; settings: ApoE^−/− mice, in vivo treatment
Procedure: The expression of p15^Ink4b, p16^Ink4a, p18^Ink4c, p19^ARF, P21^Waf1, and p27^Kip1 was determined using RT-PCR, a more sensitive and quantitative assay, in ApoE^−/− and WT HSCs.

[5] = test system: p38 MAPK; assay: Phosphorylated (activated) p38 MAPK expression in HSCs; format: in vivo, mouse
Source text: Activation of p38 MAPK by ROS has been reported in Atm^−/− mice and this event participates in ROS-induced loss of HSC quiescence. Expression of p38 MAPK was similar in HSCs from ApoE^−/−, HCD, and WT mice. However, expression of activated (phosphorylated) p38 MAPK is greater in HSCs from hypercholesterolemic mice than from WT mice (FIGS. 44A and 44B). FIGS. 44A-44C show p38 MAPK activation is greater in HSC from hypercholesterolemic mice. […] Neither treatment affected the outcome of competitive transplant with WT HSCs. m±sd, n=5 mice per group, *p<0.05 vs. WT, † p<0.05 vs. ApoE.

[6] = test system: db/db MSC; assay: Oxidative/nitrative stress in db/db MSC (DCF-DA staining, nitrotyrosine); format: cell-based, mouse; settings: db/db MSC in vitro
Source text: Data are expressed as % positive DCF-DA cells/hpf. m±sd, n=5, *p<0.05. […] The db/db MSC expressed a greater oxidative/nitrative stress than WT MSC. […] In summary, in vitro, db/db MSC show greater oxidative nitrostive stress than WT MSCs and this phenotype can be reversed by N-acetylcysteine (NAC).

CC(=O)N[C@@H](CS)C(=O)O [NAC, N-acetylcysteine]
expression of Fyn in the total thymocyte population [1]: restored in vivo by treatment with NAC | colonic resident populations of NKT and γδT cells ([2]; healthy colon): restored the colonic resident populations of NKT and γδT cells to WT levels | numbers of NKT and γδT cells in AOM-induced polyps [2]: significantly increased the numbers of NKT and γδT cells in all grades of AOM-induced polyps | percentages of γδT cells and NKT cells in the thymus and peripheral blood [2]: reversed by in vivo treatment with NAC for 4 weeks | H2O2 in HSC lysates [3]: significantly decreased by in vivo NAC treatment | HSC expression of p19^Arf, p21^Waf1, and p27^Kip1 [4]: fully reversed these increases | expression of activated p38 in HSCs ([5]; ApoE^−/− mice, in vivo treatment): significantly reduced expression of activated p38 in ApoE^−/− HSCs | expression of activated p38 in HSCs ([5]; WT mice): had no effect on activated p38 expression in WT HSCs | oxidative/nitrative stress (DCF-DA staining, nitrotyrosine accumulation) [6]: significantly reduced the presence of oxidative/nitrative stress
